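How tested: cells in 96-well plates exposed to compound for 48 hours at five concentrations. GI50 = concentration required for 50% inhibition of growth. The concentration for full growth arrest is given as TGI.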
Columns and labels:
Test in all cases: NCI-60 cell line screen, 48 h; in the data active = GI50 below about 0.43 µM; inactive = the rest
HOP-62 NSCLC = test system: HOP-62 NSCLC
K-562 leukemia = test system: K-562 leukemia
HL-60(TB) leukemia = test system: HL-60(TB) leukemia
SNB-75 CNS = test system: SNB-75 CNS
OVCAR-3 ovarian = test system: OVCAR-3 ovarian
SF-539 CNS = test system: SF-539 CNS
OVCAR-4 ovarian = test system: OVCAR-4 ovarian
NCI-H460 lung = test system: NCI-H460 lung
CCRF-CEM leukemia = test system: CCRF-CEM leukemia
A549 NSCLC = test system: A549 NSCLC
UO-31 renal = test system: UO-31 renal
COLO 205 colon = test system: COLO 205 colon
IGROV1 ovarian = test system: IGROV1 ovarian
SK-MEL-5 melanoma = test system: SK-MEL-5 melanoma
HCC-2998 colon = test system: HCC-2998 colon
DMS 273 small cell lung = test system: DMS 273 small cell lung
LXFL 529 NSCLC = test system: LXFL 529 NSCLC
SK-MEL-28 melanoma = test system: SK-MEL-28 melanoma
SW-620 colon = test system: SW-620 colon
KM12 colon = test system: KM12 colon
SR leukemia = test system: SR leukemia
SF-268 CNS = test system: SF-268 CNS
OVCAR-5 ovarian = test system: OVCAR-5 ovarian
786-0 renal = test system: 786-0 renal
HT29 colon = test system: HT29 colon
SN12C renal = test system: SN12C renal
ACHN renal = test system: ACHN renal
UACC-62 melanoma = test system: UACC-62 melanoma
SNB-78 CNS = test system: SNB-78 CNS
HOP-92 NSCLC = test system: HOP-92 NSCLC
XF 498 CNS = test system: XF 498 CNS
SF-295 CNS = test system: SF-295 CNS
SK-OV-3 ovarian = test system: SK-OV-3 ovarian
TK-10 renal = test system: TK-10 renal
HOP-18 NSCLC = test system: HOP-18 NSCLC
KM20L2 colon = test system: KM20L2 colon
LOX IMVI melanoma = test system: LOX IMVI melanoma
OVCAR-8 ovarian = test system: OVCAR-8 ovarian
DMS 114 small cell lung = test system: DMS 114 small cell lung
CAKI-1 renal = test system: CAKI-1 renal
MOLT-4 leukemia = test system: MOLT-4 leukemia
RXF 393 renal = test system: RXF 393 renal
U251 CNS = test system: U251 CNS
HCT-116 colon = test system: HCT-116 colon
NCI-H23 lung = test system: NCI-H23 lung
SNB-19 CNS = test system: SNB-19 CNS
SK-MEL-2 melanoma = test system: SK-MEL-2 melanoma
M14 melanoma = test system: M14 melanoma
M19-MEL melanoma = test system: M19-MEL melanoma
RPMI-8226 leukemia = test system: RPMI-8226 leukemia
NCI-H522 lung = test system: NCI-H522 lung
NCI-H226 lung = test system: NCI-H226 lung
UACC-257 melanoma = test system: UACC-257 melanoma
RXF-631 renal = test system: RXF-631 renal
EKVX NSCLC = test system: EKVX NSCLC
HCT-15 colon = test system: HCT-15 colon
A498 renal = test system: A498 renal
MALME-3M melanoma = test system: MALME-3M melanoma
DLD-1 colon = test system: DLD-1 colon

CCCCCCCCCCCC(O)=C1C(=O)CC(O)CC1=O (stereo unspecified)
58700 nM: TGI (HL-60(TB) leukemia)
> 100000 nM: TGI (HOP-62 NSCLC) | TGI (K-562 leukemia) | TGI (SNB-75 CNS) | TGI (OVCAR-3 ovarian) | TGI (SF-539 CNS) | TGI (OVCAR-4 ovarian) | TGI (NCI-H460 lung) | TGI (CCRF-CEM leukemia) | TGI (A549 NSCLC) | TGI (UO-31 renal) | TGI (COLO 205 colon) | TGI (IGROV1 ovarian) | TGI (SK-MEL-5 melanoma) | TGI (HCC-2998 colon) | TGI (DMS 273 small cell lung) | TGI (LXFL 529 NSCLC) | TGI (SK-MEL-28 melanoma) | TGI (SW-620 colon) | TGI (KM12 colon) | TGI (SR leukemia) | TGI (SF-268 CNS) | TGI (OVCAR-5 ovarian) | TGI (786-0 renal) | TGI (HT29 colon) | TGI (SN12C renal) | TGI (ACHN renal) | TGI (UACC-62 melanoma) | TGI (SNB-78 CNS) | TGI (HOP-92 NSCLC) | TGI (XF 498 CNS) | TGI (SF-295 CNS) | TGI (SK-OV-3 ovarian) | TGI (TK-10 renal) | TGI (HOP-18 NSCLC) | TGI (KM20L2 colon) | TGI (LOX IMVI melanoma) | TGI (OVCAR-8 ovarian) | TGI (DMS 114 small cell lung) | TGI (CAKI-1 renal) | TGI (MOLT-4 leukemia) | TGI (RXF 393 renal) | TGI (U251 CNS) | TGI (HCT-116 colon) | TGI (NCI-H23 lung) | TGI (SNB-19 CNS) | TGI (SK-MEL-2 melanoma) | TGI (M14 melanoma) | TGI (M19-MEL melanoma) | TGI (RPMI-8226 leukemia) | TGI (NCI-H522 lung) | TGI (NCI-H226 lung) | TGI (UACC-257 melanoma) | TGI (RXF-631 renal) | TGI (EKVX NSCLC)

c1cc[c]([Sn]([S]c2cccc3cccnc23)([S]c2cccc3cccnc23)[c]2ccccc2)cc1
402 nM: TGI (LOX IMVI melanoma)
538 nM: TGI (SK-MEL-2 melanoma)
1060 nM: TGI (NCI-H226 lung)
324 nM: TGI (HCT-116 colon) | TGI (RXF-631 renal)
417 nM: TGI (TK-10 renal)
374 nM: TGI (DMS 114 small cell lung)
446 nM: TGI (HCT-15 colon)
563 nM: TGI (HL-60(TB) leukemia)
460 nM: TGI (NCI-H23 lung)
1660 nM: TGI (SNB-19 CNS)
532 nM: TGI (SK-MEL-28 melanoma)
407 nM: TGI (XF 498 CNS)
1920 nM: TGI (U251 CNS)
2070 nM: TGI (SK-OV-3 ovarian)
1480 nM: TGI (SF-268 CNS)
393 nM: TGI (M14 melanoma)
565 nM: TGI (HT29 colon)
493 nM: TGI (HOP-92 NSCLC)
502 nM: TGI (786-0 renal)
481 nM: TGI (HOP-18 NSCLC)
1750 nM: TGI (HOP-62 NSCLC)
465 nM: TGI (RPMI-8226 leukemia)
2690 nM: TGI (OVCAR-5 ovarian)
680 nM: TGI (SNB-78 CNS)
1380 nM: TGI (A549 NSCLC)
559 nM: TGI (UACC-257 melanoma)
895 nM: TGI (OVCAR-8 ovarian)
1400 nM: TGI (SF-295 CNS)
643 nM: TGI (NCI-H460 lung)
483 nM: TGI (SK-MEL-5 melanoma)
789 nM: TGI (IGROV1 ovarian)
542 nM: TGI (MOLT-4 leukemia) | TGI (M19-MEL melanoma)
inactive: GI50 (OVCAR-5 ovarian) 1340 nM | GI50 (SK-OV-3 ovarian) 588 nM | GI50 (U251 CNS) 482 nM | GI50 (SNB-19 CNS) 438 nM
893 nM: TGI (SF-539 CNS)
230 nM: TGI (RXF 393 renal)
1160 nM: TGI (SNB-75 CNS)
202 nM: TGI (A498 renal)
361 nM: TGI (OVCAR-3 ovarian)
430 nM: TGI (UACC-62 melanoma) | TGI (CAKI-1 renal)
881 nM: TGI (EKVX NSCLC)
955 nM: TGI (DMS 273 small cell lung)
429 nM: TGI (CCRF-CEM leukemia)
352 nM: TGI (HCC-2998 colon)
365 nM: TGI (SW-620 colon)
298 nM: TGI (COLO 205 colon)
active: GI50 (HOP-62 NSCLC) 411 nM | GI50 (HL-60(TB) leukemia) 172 nM | GI50 (SNB-75 CNS) 192 nM | GI50 (OVCAR-3 ovarian) 165 nM | GI50 (SF-539 CNS) 295 nM | GI50 (OVCAR-4 ovarian) 163 nM | GI50 (NCI-H460 lung) 228 nM | GI50 (CCRF-CEM leukemia) 94.8 nM | GI50 (A549 NSCLC) 363 nM | GI50 (UO-31 renal) 182 nM | GI50 (COLO 205 colon) 136 nM | GI50 (IGROV1 ovarian) 267 nM | GI50 (SK-MEL-5 melanoma) 204 nM | GI50 (HCC-2998 colon) 170 nM | GI50 (DMS 273 small cell lung) 293 nM | GI50 (LXFL 529 NSCLC) 78.2 nM | GI50 (SK-MEL-28 melanoma) 196 nM | GI50 (SW-620 colon) 140 nM | GI50 (KM12 colon) 230 nM | GI50 (HCT-15 colon) 153 nM | GI50 (SF-268 CNS) 331 nM | GI50 (786-0 renal) 212 nM | GI50 (HT29 colon) 222 nM | GI50 (SN12C renal) 284 nM | GI50 (ACHN renal) 209 nM | GI50 (UACC-62 melanoma) 186 nM | GI50 (SNB-78 CNS) 224 nM | GI50 (HOP-92 NSCLC) 158 nM | GI50 (XF 498 CNS) 155 nM | GI50 (A498 renal) 35.9 nM | GI50 (SF-295 CNS) 353 nM | GI50 (TK-10 renal) 206 nM | GI50 (HOP-18 NSCLC) 193 nM | GI50 (LOX IMVI melanoma) 186 nM | GI50 (OVCAR-8 ovarian) 250 nM | GI50 (DMS 114 small cell lung) 164 nM | GI50 (CAKI-1 renal) 134 nM | GI50 (MOLT-4 leukemia) 101 nM | GI50 (RXF 393 renal) 109 nM | GI50 (HCT-116 colon) 175 nM | GI50 (NCI-H23 lung) 198 nM | GI50 (SK-MEL-2 melanoma) 160 nM | GI50 (M14 melanoma) 188 nM | GI50 (M19-MEL melanoma) 216 nM | GI50 (RPMI-8226 leukemia) 158 nM | GI50 (MALME-3M melanoma) 168 nM | GI50 (NCI-H226 lung) 175 nM | GI50 (UACC-257 melanoma) 205 nM | GI50 (RXF-631 renal) 159 nM | GI50 (EKVX NSCLC) 220 nM
336 nM: TGI (OVCAR-4 ovarian)
547 nM: TGI (MALME-3M melanoma)
211 nM: TGI (LXFL 529 NSCLC)
954 nM: TGI (SN12C renal)
616 nM: TGI (KM12 colon)
514 nM: TGI (UO-31 renal)
496 nM: TGI (ACHN renal)

COc1ccc(NC(=O)CC(=O)N/N=C/c2ccc(N(CCC#N)S(=O)(=O)c3ccccc3)cc2)cc1
> 100000 nM: TGI (HOP-62 NSCLC) | TGI (K-562 leukemia) | TGI (DLD-1 colon) | TGI (HL-60(TB) leukemia) | TGI (OVCAR-3 ovarian) | TGI (OVCAR-4 ovarian) | TGI (NCI-H460 lung) | TGI (CCRF-CEM leukemia) | TGI (A549 NSCLC) | TGI (UO-31 renal) | TGI (COLO 205 colon) | TGI (IGROV1 ovarian) | TGI (SK-MEL-5 melanoma) | TGI (HCC-2998 colon) | TGI (LXFL 529 NSCLC) | TGI (SK-MEL-28 melanoma) | TGI (SW-620 colon) | TGI (KM12 colon) | TGI (HCT-15 colon) | TGI (SR leukemia) | TGI (SF-268 CNS) | TGI (OVCAR-5 ovarian) | TGI (786-0 renal) | TGI (HT29 colon) | TGI (ACHN renal) | TGI (UACC-62 melanoma) | TGI (SNB-78 CNS) | TGI (HOP-92 NSCLC) | TGI (XF 498 CNS) | TGI (SF-295 CNS) | TGI (SK-OV-3 ovarian) | TGI (TK-10 renal) | TGI (HOP-18 NSCLC) | TGI (KM20L2 colon) | TGI (LOX IMVI melanoma) | TGI (OVCAR-8 ovarian) | TGI (DMS 114 small cell lung) | TGI (CAKI-1 renal) | TGI (MOLT-4 leukemia) | TGI (U251 CNS) | TGI (HCT-116 colon) | TGI (NCI-H23 lung) | TGI (SNB-19 CNS) | TGI (SK-MEL-2 melanoma) | TGI (M14 melanoma) | TGI (M19-MEL melanoma) | TGI (RPMI-8226 leukemia) | TGI (NCI-H522 lung) | TGI (MALME-3M melanoma) | TGI (NCI-H226 lung) | TGI (UACC-257 melanoma) | TGI (RXF-631 renal) | TGI (EKVX NSCLC)

From PubChem BioAssay (NCI)
